Among the data in ChEMBL document CHEMBL5209572, “Membrane potential based assay for SLC22A4 using HEK-293 SLC22A4 OE cells” (2022) are EC50 values, retold here.

The structures appear in SMILES notation.

The assay addresses T1, Solute carrier family 22 member 4 (Homo sapiens, UniProt Q9H015).
T1 sequence (Q9H015 whole entry): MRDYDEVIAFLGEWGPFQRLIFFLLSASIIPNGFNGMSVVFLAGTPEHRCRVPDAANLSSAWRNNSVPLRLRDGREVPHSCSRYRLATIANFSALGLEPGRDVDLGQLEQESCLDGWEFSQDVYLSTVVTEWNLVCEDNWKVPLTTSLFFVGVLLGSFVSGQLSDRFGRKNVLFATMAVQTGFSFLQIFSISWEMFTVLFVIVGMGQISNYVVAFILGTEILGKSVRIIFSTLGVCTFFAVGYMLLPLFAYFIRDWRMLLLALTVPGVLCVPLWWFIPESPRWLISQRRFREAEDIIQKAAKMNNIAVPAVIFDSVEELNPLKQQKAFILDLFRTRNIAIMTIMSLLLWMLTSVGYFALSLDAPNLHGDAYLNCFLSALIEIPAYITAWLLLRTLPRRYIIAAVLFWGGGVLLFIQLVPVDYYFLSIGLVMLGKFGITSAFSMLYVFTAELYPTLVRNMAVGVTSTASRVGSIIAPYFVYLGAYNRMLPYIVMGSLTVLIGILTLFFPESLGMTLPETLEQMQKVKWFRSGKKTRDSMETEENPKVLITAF
Description: Substrate uptake by the Organic Cation/Carnitine Transporter 1 (OCTN1, SLC22A4) as assessed by the fluorescent FLIPR membrane potential dye in HEK-293 cells stably transfected with SLC22A4 (PubChem AID: 1794816). The format is functional, cell-based, HEK293.

For the compound `C[N+](C)(C)[C@@H](Cc1c[nH]c(=S)[nH]1)C(=O)[O-]`, a half-maximal effect (EC50) was put at 40 µM.
